From US4228124A, “Fumigating method and apparatus” (priority 1979, dated 1980) come the findings set out here.

This data set in a line: effective fugacity rate on heating with hot air current from ring heater and fan (FIG. 1 apparatus). Format: physicochemical. The following applies: Table 5, Comparative Example 1: without blowing agent. Here is the method:
This invention will be described below in greater detail with reference to examples, in which the effective fugacity rates of active ingredients are determined by volatilizing the ingredient within a closed container, passing the air within the container through a solvent which completely dissolves the active ingredients, such as benzene, acetone, water, chloroform or dichloromethane to cause the solvent to absorb the vaporized ingredient in the air, concentrating the solvent and subjecting the concentrate to gas chromatography. The fugacity rate is expressed in terms of the ratio in percent of the quantity of the vaporized active ingredient to the quantity of the ingredient initially admixed with a blowing agent.
Each of the specimen mixtures of insecticide and blowing agent listed in Table 2 is placed in an inner case 8 (60 cm^3 in capacity) fitted in an apparatus (15 cm in diameter and 15 cm in height) provided in its passage 2 with the same ring heater 6 as shown in FIG. 1.
The ring heater 6 (power 400 W) and a fan 4 (with 4 blades) are energized to produce a hot air current. The fan 4 is driven at 3000 r.p.m. The mixture is heated for about 5 minutes (up to a temperature of about 300° C.) with the hot air current to thermally decompose the blowing agent and diffuse the vapor of the insecticide. […]

With `CC(C)=CC1C(C(=O)OCc2coc(Cc3ccccc3)c2)C1(C)C` (stereo not shown) [Specimen 27], the effective fugacity rate was found to be 0.4%.
